Laboratory results from patent US20260166162A1, “CARBON CHAIN SUBSTANCE FOR REGULATING TRANSMEMBRANE TRANSPORT AND FLUIDITY OF CELL MEMBRANES, AND PREPARATION AND USE THEREOF” (priority 2022, published 2026).

Legend:
293T cells = experiment: Cellular phagocytosis of DiD-loaded lipid vesicles (nano-drugs) by 293T cells (Example II-51, Table II-29); type: cell-based; conditions: 293T cells pretreated 4 h, DiD lipid vesicles 2 h, n=3, untreated control 226.46 ± 1.26
Epithelial cells = experiment: Interaction of GFP-labelled complexes with cell membrane of epithelial cells (Example II-52, Table II-30); type: cell-based; conditions: GFP-labelled complex, epithelial cells pretreated 4 hours, n=3
Procedure: The fatty acids were combined with water-soluble small molecules to form a complex, which were labeled with GFP fluorescence to detect cell membrane fluorescence. […] After the cells were stably adhered, the water-soluble fatty acid complexes in the following table were added to the cell culture medium. […] The medium with the drug was pipetted and replaced with normal DMEM medium. […] The green fluorescence intensity was analyzed by imageJ (see Table II-30, n=3).

| Compound | Fluorescence intensity (293T cells; 2 nM) | Fluorescence intensity (293T cells; 5 nM) | Fluorescence intensity (293T cells; 10 nM) | Fluorescence intensity (293T cells; 50 nM) | Fluorescence intensity (293T cells; 100 nM) | Fluorescence intensity (293T cells; 1 uM) | Fluorescence intensity (293T cells; 10 uM) | Fluorescence intensity (293T cells; 50 uM) | Fluorescence intensity (293T cells; 100 uM) | Mean fluorescence intensity (Epithelial cells; 0 Hours after medium replaced) | Mean fluorescence intensity (Epithelial cells; 2 Hours after medium replaced) | Mean fluorescence intensity (Epithelial cells; 4 Hours after medium replaced) | Mean fluorescence intensity (Epithelial cells; 8 Hours after medium replaced) | Mean fluorescence intensity (Epithelial cells; 12 Hours after medium replaced) | Mean fluorescence intensity (Epithelial cells; 24 Hours after medium replaced) |
| --- | --- | --- | --- | --- | --- | --- | --- | --- | --- | --- | --- | --- | --- | --- | --- |
| CCCCCCCCCCCCCCCC(=O)OCC1OC(O)C(O)C(O)C1O (stereo not drawn) [Glucose-C16] | 134.65 ± 15.22 | 114.00 ± 11.02 | 94.34 ± 4.57 | 96.63 ± 6.54 | 172.88 ± 26.33 | 198.54 ± 8.55 | 170.16 ± 20.33 | 110.15 ± 10.22 | 104.90 ± 4.91 |  |  |  |  |  |  |
| C=CCCCCCCCCC(=O)NCCCCC(N)C(=O)O (stereo not drawn) [Lys-10-undecenoic acid] |  |  |  |  |  |  |  |  |  | 135.6 ± 2.4 | 130.8 ± 6.7 | 118.2 ± 9.0 | 89.5 ± 4.4 | 58.6 ± 5.7 | 49.6 ± 0.5 |
| O=C(O)CCCCCCCCCC(=O)OCC(O)C1OC(=O)C(O)=C1O (stereo not drawn) [Vc-undecanedioic acid] |  |  |  |  |  |  |  |  |  | 124.4 ± 4.5 | 116.4 ± 0.7 | 112.1 ± 6.3 | 65.3 ± 3.6 | 41.3 ± 9.3 | 35.4 ± 1.6 |
| O=C(O)CCCCCCCCCC(=O)OCC(O)C1OC(=O)C(O)=C1O (stereo not drawn) [VC-undecanedioic acid] | 121.02 | 92.26 | 78.76 ± 7.89 | 87.57 ± 5.57 | 96.31 ± 6.21 | 199.22 ± 19.26 | 217.49 ± 14.22 | 106.96 ± 5.64 | 110.44 ± 9.87 |  |  |  |  |  |  |
| CCCCCCCCC=CCCCCCCCCCCCC(=O)OC(C)C(N)C(=O)O (stereo not drawn) [Thr-erucic acid] |  |  |  |  |  |  |  |  |  | 137.4 ± 5.8 | 121.3 ± 5.5 | 105.2 ± 7.3 | 79.5 ± 4.8 | 48.3 ± 1.2 | 42.4 ± 4.6 |
| CCCCCCCC/C=C\CCCCCCCC(=O)OCCOCC(OCCO)C1OCC(OCCO)C1OCCO (stereo not drawn) [Tween-80] | 45.04 | 32.41 | 21.85 | 17.28 | 11.89 | 152.11 | 103.58 | 18.48 | 13.34 ± 3.24 |  |  |  |  |  |  |
| CCCCCCCCCCCCCCCCCCCCCCCC(=O)OC(C)C(N)C(=O)O (stereo not drawn) [Threonine-C24] | 39.09 ± 7.89 | 38.29 ± 5.26 | 22.90 ± 1.22 | 12.84 ± 2.22 | 14.81 ± 1.33 | 435.55 ± 15.26 | 416.78 ± 12.33 | 46.51 ± 5.21 | 30.64 ± 5.55 |  |  |  |  |  |  |
